From publication PMC4929566, “The metabolome of [2-^14C](−)-epicatechin in humans: implications for the assessment of efficacy, safety, and mechanisms of action of polyphenolic bioactives” (Scientific Reports, 2016)
Like-named read-outs stand apart in the source and are kept apart here.

What was measured:
[1] = Metabolite profiling and pharmacokinetics in plasma (targeted HPLC-MS2); format: in vivo, humans; conditions: for AUC0-24h / Cmax / T1/2 (elimination half-life) / Tmax / AUC(0-t) / half-life: human plasma, oral 60 mg 14C-EC, mean ± SEM n=8; for AUC(0-t): read-out: AUC0-24h; for half-life: read-out: T1/2 (elimination half-life) (converted); for Identification as human EC metabolite: human plasma and urine, radiolabeled tracer
Method: (§1) The study was a single-center, open-label, and non-randomized study with two distinct elements: a run-in phase to establish a more defined dietary background of dietary flavanols and procyanidins and the subsequent ^14C-EC ADME study (Fig. 1B). Participants (n = 12) were enrolled in the run-in phase (day –17 to day –4) and asked to supplement their daily diet for 14 days with a commercially available flavanol-containing cocoa-based drink (250 mg cocoa flavanols; 40 mg of EC). This was followed by a 4-day period (day –4 to 0) of a low-flavanol diet. One day (study day -1) prior to the initialization of the ^14C-EC ADME study, all eligible participants were accommodated under controlled conditions at a metabolic research facility (Covance Clinical Pharmacology Inc., Wisconsin) until completion of the study. Based on the compliance of the first part of the study, 8 participants were selected to participate in the ^14C-EC ADME study. During the ^14C-EC ADME study (Fig. 1B.), volunteers received a low-flavanol, standardized high-fiber diet, and were encouraged to maintain an adequate level of hydration (water ad libitum). Volunteers were asked to fast for 8 h before the initiation of the study and for at least 4 h after the intake of the ^14C-EC test drink (water ad libitum). Venous blood samples were taken using Vacutainer collection tubes, containing potassium EDTA at 0 h (just prior to ^14C-EC ingestion), and at 0.25, 0.5, 1, 1.5, 2, 2.5, 3, 4, 6, 8, 10, 12, 16, 24, 36, and 48 h after test drink consumption. Plasma was obtained by whole blood centrifugation at 2000 × g for 15 min at 5 °C, separated into aliquots and stored at −80 °C until analysis. All urine and feces from the time just prior to the consumption of the test drink were collected at different time intervals for radioactivity and metabolite profiling. Clinical parameters and laboratory evaluations of participants were assessed at screening, on study day –1, and after completing the study, as detailed in Supplementary Methods.
(§2) Samples were processed as described previously[18] and analyzed by HPLC-MS^2 in conjunction with an on-line HPLC-radioactivity monitor as described in SI Materials and Methods. Identification of metabolites involved comparing the retention time with authentic standards and MS^2 fragmentation patterns (Supplementary Methods). Quantification of metabolites in urine was based on HPLC radioactivity peak area (limit of quantification: 10^3 dpm). Due to the low levels of radioactivity, quantification in plasma was based on targeted HPLC-MS^2 using standard curves obtained with authentic standards (Supplementary Methods).
Data are expressed as mean values ± standard error, or as otherwise specified. Pharmacokinetic parameters were calculated using non-compartmental analysis with WinNonlin (Pharsight Corporation, Version 5.2).
5-20% acetonitrile in 0.1 % formic acid. Supplementary Table S2 provides details of HPLC retention times and the m/z values that were monitored.
Supplementary Table S2. Detection of (−)-epicatechin metabolites. HPLC retention times and selected reaction monitoring ions used for the HPLC-MS analysis of (−)-epicatechin metabolites in plasma. […]
Structurally related (-)-epicatechin metabolites in humans: assessment using de novo chemically synthesized authentic standards. Free Radic Biol Med 52, 1403- […]
3 Borges, G. et al. Bioavailability of multiple components following acute ingestion of a polyphenol-rich juice drink. Mol Nutr Food Res 54 Suppl 2, S268-277, […]
4 Stalmach, A. et al. Absorption, metabolism, and excretion of green tea flavan-3-ols in humans with an ileostomy. Mol Nutr Food Res 54, 323-334,

[2] = Metabolite profiling and quantification in urine (HPLC-MS2 with on-line radioactivity detector); format: in vivo, humans; conditions: human, oral 207 μmol 14C-EC, mean ± SEM n=8; for Metabolite present in urine, collection period 4–8 h / Metabolite present in urine, collection period 8–12 h / Metabolite present in urine, collection period 12–24 h / Metabolite present in urine, collection period 24–48 h / Metabolite present in urine, collection period 0–4 h: – = not detected
Method: as §1, §2
HPLC-MS identifications of radiolabeled [2-14C](−)-epicatechin metabolites in urine Urine was analyzed with radioactivity and mass spectrometry (MS) detection using a 250 mm x 4.6 mm i.d. 5 µm Luna Phenyl-Hexyl column (Phenomenex, Macclesfield, UK) […]
formic acid. Metabolite identification was performed by 1) co-chromatography of metabolites with reference compounds and a comparison of their MS fragmentation patterns 2, 2) by comparing m/z fragmentation patterns with earlier in-house observed […]
patterns to databases of metabolites reported in earlier polyphenol feeding studies5-7.
Supplementary Table S2, which also provides information on the MSI MI (Metabolite Standards Initiative – Metabolites Identification) level, a confidence level for identification where level 1 stands for fully elucidated (i.e., by comparison with a standard) and level 2 for a well characterized, but not yet fully structurally elucidated 8

Compound | AUC0-24h [1] | Cmax [1] | T1/2 (elimination half-life) [1] | Tmax [1] | Metabolite present in urine, collection period 0–48 h [2] | Metabolite present in urine, collection period 4–8 h [2] | Metabolite present in urine, collection period 8–12 h [2] | Metabolite present in urine, collection period 12–24 h [2] | Metabolite present in urine, collection period 0–4 h [2] | further results
5-(Hydroxyphenyl)-γ-hydroxyvaleric acid-sulfate | 1.49 ± 0.475 µM·h | 56 ± 9 nM | 7.6 ± 3.5 h | 5.9 ± 0.6 h |  |  |  |  |  | 
5-(Phenyl)-γ-valerolactone-O-sulfate-O-glucuronide | 1.02 ± 0.481 µM·h | 39 ± 9 nM | 6.4 ± 2.2 h | 5.5 ± 1.1 h |  |  |  |  |  | 
O=C(O)CNC(=O)c1cccc(O)c1 [3′-Hydroxyhippuric acid] |  |  |  |  | 16.9 ± 5.8 μ mol | 1.6 ± 0.5 μ mol | 2.8 ± 0.7 μ mol | 7.0 ± 2.9 μ mol |  | Metabolite present in urine, collection period 24–48 h [2]: 5.5 ± 2.3 μ mol
COc1cc([C@H]2Oc3cc(O)cc(O)c3C[C@H]2O)ccc1OS(=O)(=O)O [3′-O-Methyl-(−)-epicatechin-4′-sulfate] | 0.203 ± 0.069 µM·h | 53 ± 13 nM | 2.3 ± 0.6 h | 0.9 ± 0.1 h | 0.7 ± 0.2 μ mol |  |  |  | 0.7 ± 0.2 μ mol | 
COc1cc([C@H]2Oc3cc(O)cc(OS(=O)(=O)O)c3C[C@H]2O)ccc1O [3′-O-Methyl-(−)-epicatechin-5-sulfate, 3′-O-methyl-(−)-epicatechin-5-sulfate] |  |  |  |  | 9.6 ± 1.2 μ mol | 1.8 ± 0.3 μ mol | 0.4 ± 0.1 μ mol | 0.3 ± 0.2 μ mol | 7.1 ± 0.9 μ mol | Cmax ([1]; male): 240 ± 24 nM; AUC(0-t) ([1]; male): 0.915 ± 0.178 µM·h; half-life ([1]; male): 1.6 ± 0.1 h; Tmax ([1]; male, read-out: Tmax): 0.9 ± 0.1 h
COc1cc([C@H]2Oc3cc(OS(=O)(=O)O)cc(O)c3C[C@H]2O)ccc1O [3′-O-Methyl-(−)-epicatechin-7-sulfate, 3′-O-methyl-(−)-epicatechin-7-sulfate] | 1.03 ± 0.26 µM·h | 159 ± 20 nM | 2.4 ± 0.2 h | 1.1 ± 0.1 h | 1.2 ± 0.3 μ mol | 0.3 ± 0.1 μ mol |  |  | 0.9 ± 0.2 μ mol | 
COc1cc([C@H]2Oc3cc(O)cc(O[C@@H]4O[C@H](C(=O)O)[C@@H](O)[C@H](O)[C@H]4O)c3C[C@H]2O)ccc1O [3′-O-methyl(−)-epicatechin-5-O-β-D-glucuronide] | 0.025 ± 0.01 µM·h | 23 ± 5 nM | 1.3 ± 0.2 h | 0.8 ± 0.2 h |  |  |  |  |  | Relative amount (% of total) of individual SREM in plasma ([1]; human, 1 h post 14C-EC intake, Fig. 4A): < 3%
COc1cc([C@H]2Oc3cc(O[C@@H]4O[C@H](C(=O)O)[C@@H](O)[C@H](O)[C@H]4O)cc(O)c3C[C@H]2O)ccc1O [3′-O-methyl(−)-epicatechin-7-O-β-D-glucuronide] | 0.077 ± 0.031 µM·h | 39 ± 5 nM | 1.3 ± 0.3 h | 0.9 ± 0.1 h |  |  |  |  |  | 
COc1ccc([C@H]2Oc3cc(O)cc(OS(=O)(=O)O)c3C[C@H]2O)cc1O [4′-O-Methyl-(−)-epicatechin-5-sulfate] | 0.128 ± 0.045 µM·h | 53 ± 14 nM | 1.4 ± 0.3 h | 0.9 ± 0.1 h | 1.1 ± 0.3 μ mol | 0.1 ± 0.1 μ mol |  |  | 1.0 ± 0.2 μ mol | 
O=C1CCC(Cc2ccc(O[C@@H]3O[C@H](C(=O)O)[C@@H](O)[C@H](O)[C@H]3O)c(O)c2)O1 (stereo partly shown) [5-(3′-Hydroxyphenyl)-γ-valerolactone-4′-O-glucuronide] | 1.33 ± 0.396 µM·h | 52 ± 9 nM | 4.4 ± 1.3 h | 6.1 ± 0.8 h |  |  |  |  |  | 
O=C1CCC(Cc2ccc(O)c(O[C@@H]3O[C@H](C(=O)O)[C@@H](O)[C@H](O)[C@H]3O)c2)O1 (stereo partly shown) [5-(4′-Hydroxyphenyl)-γ-valerolactone-3′-O-glucuronide] |  |  |  |  |  |  |  |  |  | Cmax ([1]; male): 125 ± 30 nM; AUC(0-t) ([1]; male): 1.91 ± 0.787 µM·h; half-life ([1]; male): 3.1 ± 0.6 h; Tmax ([1]; male, read-out: Tmax): 6.8 ± 0.8 h
O=C(O)CCC(O)Cc1cccc(OS(=O)(=O)O)c1 (stereo not shown) [5-(Phenyl)-4-hydroxyvaleric acid-3′-sulfate] |  |  |  |  | 2.9 ± 1.6 μ mol | 1.9 ± 1.0 μ mol | 0.3 ± 0.2 μ mol | 0.7 ± 0.7 μ mol |  | 
O=C1CCC(Cc2cccc(OS(=O)(=O)O)c2)O1 (stereo not shown) [5-(Phenyl)-γ-valerolactone-3′-sulfate] |  |  |  |  | 4.7 ± 2.7 μ mol | 2.4 ± 1.1 μ mol | 1.2 ± 0.9 μ mol | 1.0 ± 0.8 μ mol | 0.1 ± 0.1 μ mol | 
O=C(O)[C@H]1O[C@@H](Oc2cc(O)c3c(c2)O[C@H](c2ccc(O)c(O)c2)[C@H](O)C3)[C@H](O)[C@@H](O)[C@@H]1O [(−)-Epicatechin-7-O-glucuronide, (−)-epicatechin-7-O-β-D-glucuronide] | 0.045 ± 0.014 µM·h | 22 ± 7 nM | 1.7 ± 0.3 h | 0.8 ± 0.1 h |  |  |  |  |  | 
O=S(=O)(O)Oc1cc(O)c2c(c1)O[C@H](c1ccc(O)c(O)c1)[C@H](O)C2 [(−)-Epicatechin-7-sulfate] | 0.043 ± 0.016 µM·h | 19 ± 3 nM | 2.2 ± 0.4 h | 1.1 ± 0.2 h |  |  |  |  |  | 
O=S(=O)(O)Oc1ccc([C@H]2Oc3cc(O)cc(O)c3C[C@H]2O)cc1O [(−)-epicatechin-4′-sulfate, reference compound] |  |  |  |  |  |  |  |  |  | Identification as human EC metabolite [1]: could not be identified by us
O=C(O)[C@H]1O[C@@H](Oc2ccc([C@H]3Oc4cc(O)cc(O)c4C[C@H]3O)cc2O)[C@H](O)[C@@H](O)[C@@H]1O [(−)-epicatechin-4′-β-D-glucuronide, reference compound] |  |  |  |  |  |  |  |  |  | Identification as human EC metabolite [1]: could not be identified by us
O=C(O)CNC(=O)c1ccccc1 [Hippuric acid] |  |  |  |  | 26.4 ± 7.1 μ mol | 7.2 ± 3.9 μ mol | 5.6 ± 2.6 μ mol | 7.1 ± 2.1 μ mol | 0.6 ± 0.4 μ mol | Metabolite present in urine, collection period 24–48 h [2]: 5.9 ± 4.1 μ mol
Hydroxyphenylacetic acid-sulfate |  |  |  |  | 2.9 ± 1.1 μ mol | 0.9 ± 0.5 μ mol | 0.8 ± 0.6 μ mol | 1.2 ± 0.4 μ mol |  | 
